This note sets out measurements from US7091185B2, “Periodic antimicrobial peptides” (Dow Global Technologies Inc., priority 2003, dated 2006).

The term IC50 denotes the point on the concentration scale where inhibition reaches its midpoint. The term MIC denotes the smallest concentration in the dilution series that meets the test's criterion for growth inhibition. Higher therefore signals a need for much substance.

The test system of series [1] is C. albicans 10231. It counts as cell-based. Conditions: 10231. The gist of the method:
(§1)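 Broth microdilution per NCCLS, adapted for fungi with Sabouraud Dextrose Broth; KFAK-repeat peptide multimers in two-fold dilutions from 1,000 to 1 μg/ml. Growth by OD620 after overnight incubation; IC50 by sigmoidal fit, in duplicate, repeated at least twice.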

The subject of series [2] is Cr. Neoformans 32045. It counts as cell-based. The gist of the method: as §1
The subject of series [3] is P. aeruginosa ATCC 10145. The conditions noted are these: ATCC 10145.
Series [4] has as its system E. coli ATCC 2592. Conditions: ATCC 2592.
In series [5] the test system is S. aureus (methicillin resistant) ATCC 33591.
A short description of series [6]: Red blood cell toxicity. Conditions: red blood cells (RBC); RBCs; concentration required for 50% toxicity; read-out: TX50. It is filed as cell-based.
Series [7] has as its system Red blood cells (RBC). Nature of the series: Red blood cell toxicity. It counts as cell-based.
Series [8] deals with HeLa cell line. Nature of the series: HeLa MTS cellular reduction toxicity assay. Conditions: for TX50: 24 h, MTS. It is filed as cell-based. The gist of the method: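 HeLa cells grown 48 h, then exposed to serial 2-fold peptide dilutions for 24 h at 37 °C, 5% CO2. MTS-PMS added for 1 h; absorbance at 490 nm compared with untreated cells. TX50 (50% toxicity concentration) from sigmoidal curve fit.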

The test system of series [9] is P. aeruginosa ATCC 15442. As to the kind of experiment: HMARQ biocidal kill activity. It is filed as cell-based. Conditions: P. aeruginosa ATCC 15442 (gram−). The gist of the method:
(§2)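 Inoculated sample matrix (200–300 μL) added to biocide in 96-well blocks alongside untreated controls; for kill-time runs organisms added after biocide. Viable counts by MPN serial 1:10 dilution in TSB with 50 μM resazurin indicator; values are ppm (μg/mL) giving 3.5 log kill versus untreated at 15 min or 24 h.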

In series [10] the test system is Staph. aureus ATCC 6538. As to the kind of experiment: HMARQ biocidal kill activity. Conditions: Staph. aureus ATCC 6538 (gram+). It counts as cell-based. The procedure, abridged:
as §2

[11] abbreviates: S. aureus (methicillin resistant) 33591, gram+.

Where two headings read alike, the source gives them in different places. Where no end group is shown, it is not given here.

On to “LRLRLRLRLRLRLR [LR (7), LR LR LR LR LR LR LR]”, for which the IC50 turned out to be 182 µg/mL in [1]; 1.8 µg/mL in series [2]; 109 µg/mL in [3]; 15 µg/mL in series [4]; 90 µg/mL in series [5] (setting [11]). Moreover, the MIC in [1] was 250 to 500 µg/mL; in series [2], 4 to 8 µg/mL; in series [3], 125 µg/mL; in series [4], 31 to 62 µg/mL; in [5] (setting [11]), 250 to 500 µg/mL. Further, the HC50 at 24 h in [6] was greater than 500 µg/mL. Besides, the “% kill at 250 μg/ml” value in series [7] (RBCs, 250 μg/ml) was 15%. Also, the “% kill at 500 μg/ml” value in series [8] was 86.5%. This substance also showed a TX50 in series [8] greater than 500 µg/mL. Also, the “ppm needed for 3.5 log kill at 15 min” value in series [9] is listed as greater than 63 ppm; in [10] it was 31 ppm. Further, the “ppm needed for 3.5 log kill at 24 hr” value is 4 ppm in [9] and 7.8 ppm in [10].
Regarding “H-FKAFKAFKAFKAFKAFKAFKAFKAFKA-OH [FKA (9), FKA FKA FKA FKA FKA FKA FKA FKA FKA]”, the IC50 in [1] worked out at 195 µg/mL; in series [2] it was 16 µg/mL; in series [3], 16 µg/mL; in series [4], 4 µg/mL; in [5] (ATCC 33591), 17 µg/mL. For the same substance, the MIC in series [1] is 250 to 500 µg/mL; in series [2] it was 62 to 125 µg/mL; in [3], 20 µg/mL; in series [4], 31 to 62 µg/mL; in [5] (ATCC 33591), 31 to 62 µg/mL. Further, in series [6], the HC50 at 24 h is greater than 500 µg/mL. The “% kill at 250 μg/ml” value in [7] came out at 24%. For the same substance, the “% kill at 500 μg/ml” value in series [8] came to 20.9%. In series [8], this substance yielded a TX50 of 389 µg/mL. Also, the “ppm needed for 3.5 log kill at 15 min” value in series [9] is on record as 4 ppm; in series [10], 8 ppm. Besides, the “ppm needed for 3.5 log kill at 24 hr” value in [9] turned out to be 4 ppm; in series [10], 125 ppm.
For “H-RFARRFARRFARRFARRFARRFAR-OH [RFAR (6), RFAR RFAR RFAR RFAR RFAR RFAR]”, the IC50 in series [1] was 114 µg/mL; in series [2], 35 µg/mL; in [3], 25 µg/mL; in series [4], 12 µg/mL; in series [5] (ATCC 33591), 15 µg/mL. Moreover, the MIC in series [1] is 125 to 250 µg/mL; in series [2], 62 to 125 µg/mL; in series [3], 32 µg/mL; in series [4] it was 31 to 62 µg/mL; in series [5] (ATCC 33591), 31 to 62 µg/mL. Also, the HC50 at 24 h in series [6] amounted to 176 µg/mL. The “% kill at 250 μg/ml” value in series [7] worked out at 72%. In [8], the “% kill at 500 μg/ml” value is 22.1%. This substance showed a TX50 in series [8] of 159 µg/mL. The “ppm needed for 3.5 log kill at 15 min” value was 31 ppm in [9] and greater than 500 ppm in series [10]. The “ppm needed for 3.5 log kill at 24 hr” value came to 31 ppm in series [9] and 8 ppm in series [10].
For the substance “H-FKAFKAFKAFKAFKAFKAFKAFKAFKAFKA-OH [FKA (10), FKA FKA FKA FKA FKA FKA FKA FKA FKA FKA]”, the IC50 was 182 µg/mL in series [1]; 20 µg/mL in series [2]; 27 µg/mL in [3]; 9 µg/mL in series [4]; 12 µg/mL in series [5] (ATCC 33591). In addition, the MIC is 250 to 500 µg/mL in series [1]; 32 to 62 µg/mL in [2]; 32 µg/mL in series [3]; 31 to 62 µg/mL in [4]; 31 to 62 µg/mL in [5] (ATCC 33591). Moreover, the HC50 at 24 h in series [6] was greater than 500 µg/mL. The “% kill at 250 μg/ml” value in series [7] was 51%. In addition, in series [8], the “% kill at 500 μg/ml” value is 15.0%. In [8], the TX50 was 234 µg/mL. Further, the “ppm needed for 3.5 log kill at 15 min” value in series [9] and in series [10] was 8 ppm each time. Moreover, the “ppm needed for 3.5 log kill at 24 hr” value is given as 16 ppm in series [9] and 8 ppm in series [10].
Consider “LKLKLKLKLKLKLKLKLK [LK (9), LK LK LK LK LK LK LK LK LK]”, for which the IC50 worked out at 216 µg/mL in [1]; 4.9 µg/mL in [2]; 74 µg/mL in series [3]; 35 µg/mL in series [4]; 50 µg/mL in series [5] (ATCC 33591). Moreover, the MIC was 250 to 500 µg/mL in series [1]; 32 to 62 µg/mL in series [2]; 80 µg/mL in series [3]; 62 to 125 µg/mL in series [4]; 250 to 500 µg/mL in [5] (ATCC 33591). Moreover, the HC50 at 24 h in series [6] is greater than 500 µg/mL. Moreover, in series [7], the “% kill at 250 μg/ml” value is 21%. The “% kill at 500 μg/ml” value in series [8] was 46.0%. Also, the TX50 in [8] is 137 µg/mL. Also, the “ppm needed for 3.5 log kill at 15 min” value in series [9] came out at 8 ppm; in series [10] it was 16 ppm. Moreover, the “ppm needed for 3.5 log kill at 24 hr” value in series [9] came out at 8 ppm; in [10] it was 4 ppm.
With “KAAKKAAKKAAKKAAKKAAKKAAKKAAK [KAAK (7), KAAK KAAK KAAK KAAK KAAK KAAK KAAK]”, the IC50 in series [1] is 262 µg/mL; in [2] it was 41 µg/mL; in series [3], greater than 250 µg/mL; in [4], 261 µg/mL; in series [5] (ATCC 33591) it was greater than 500 µg/mL. In addition, the MIC in series [1] was greater than 500 µg/mL; in [2], 62 to 125 µg/mL; in [3], greater than 250 µg/mL; in [5] (ATCC 33591) it was greater than 500 µg/mL. In series [6], the HC50 at 24 h is greater than 500 µg/mL. Besides, in series [7], the “% kill at 250 μg/ml” value was −6%. The “% kill at 500 μg/ml” value in [8] was 90.0%. Moreover, the TX50 in [8] is greater than 500 µg/mL. The “ppm needed for 3.5 log kill at 15 min” value in series [9] and in [10] was greater than 500 ppm throughout. The “ppm needed for 3.5 log kill at 24 hr” value in [9] amounted to 125 ppm; in series [10] it was 250 ppm.
Take “H-LKKLLKKLLKKLLKKLLKKL-OH [LKKL (5), LKKL LKKL LKKL LKKL LKKL]”: the IC50 in series [1] was 211 µg/mL; in series [2], 55 µg/mL; in series [3] it was 27 µg/mL; in series [4], 49 µg/mL; in series [5] (ATCC 33591), 69 µg/mL. Also, the MIC in series [1] is greater than 500 µg/mL; in [2], 62 to 125 µg/mL; in series [3] it was 62 µg/mL; in series [4], 62 to 125 µg/mL; in series [5] (ATCC 33591), greater than 250 µg/mL. In addition, in series [6], the HC50 at 24 h was 9 µg/mL. For the same substance, the “% kill at 250 μg/ml” value in series [7] is reported as 100%. The “% kill at 500 μg/ml” value in [8] was −0.7%. The substance also came in with a TX50 in series [8] of 31 µg/mL. The “ppm needed for 3.5 log kill at 15 min” value in series [9] and in series [10] was greater than 500 ppm each time. The results for the “ppm needed for 3.5 log kill at 24 hr” value in series [9] and in series [10] were 8 ppm and 125 ppm, respectively.
Take “H-LKLKLKLKLKLKLKLKLKLKLK-OH [LK (11), LK LK LK LK LK LK LK LK LK LK LK]”: the IC50 in [1] came out at 185 µg/mL; in series [2] it was 26 µg/mL; in series [3] it was 51 µg/mL; in [4], 50 µg/mL; in series [5] (ATCC 33591), 111 µg/mL. In addition, the MIC is 250 to 500 µg/mL in series [1]; 32 to 62 µg/mL in series [2]; 62 µg/mL in [3]; greater than 125 µg/mL in [4]; greater than 250 µg/mL in [5] (ATCC 33591). In addition, the HC50 at 24 h in [6] was greater than 500 µg/mL. The “% kill at 250 μg/ml” value in [7] is 24%. In addition, the “% kill at 500 μg/ml” value in series [8] is on record as 43.8%. The TX50 in series [8] turned out to be 202 µg/mL. Moreover, the “ppm needed for 3.5 log kill at 15 min” value is 16 ppm in [9] and 16 or less ppm in series [10]. The “ppm needed for 3.5 log kill at 24 hr” value in [9] is reported as 8 ppm; in series [10], 4 ppm.
